Assays:
[1] = system: HIV-1 (IIIB) in MT-4 cells; conditions: HIV-1-induced cytopathic effect in MT-4 cells
[2] = molecular target: HIV-1 RT-associated RNase H activity (Human immunodeficiency virus type 1 group M subtype B, UniProt P04585); assay: biochemical
[3] = system: RT-associated DNA polymerase function; conditions: cited from earlier work
[4] = molecular target: recombinant HIV-1 IN ST activity (Human immunodeficiency virus type 1 group M subtype B, UniProt P04585); assay: biochemical

O=C(/C=C/c1cccn1Cc1ccc(F)cc1)CC(=O)C(=O)O [8g, 6-[1-(4-Fluorophenyl)methyl-1H-pyrrol-2-yl]-2,4-dioxo-5-hexenoic Acid]
activity in the CPE assay [1]: antiviral

O=C(/C=C/c1cccn1Cc1ccccc1)CC(=O)C(=O)O [8a, 6-[1-(Phenyl)methyl-1H-pyrrol-2-yl]-2,4-dioxo-5-hexenoic Acid]
activity in the CPE assay [1]: antiviral

CCOC(=O)C(=O)CC(=O)/C=C/c1cccn1Cc1ccccc1OC [7m, 6-[1-(2-Methoxyphenyl)methyl-1H-pyrrol-2-yl]-2,4-dioxo-5-hexenoic Acid Ethyl Ester]
IC50 [2]: > 100 µM

CCOC(=O)C(=O)CC(=O)/C=C/c1cccn1Cc1ccc(F)cc1 [7g, 6-[1-(4-Fluorophenyl)methyl-1H-pyrrol-2-yl]-2,4-dioxo-5-hexenoic Acid Ethyl Ester]
activity in the CPE assay [1]: antiviral
activity against RT-associated DNA polymerase function [3]: inactive

O=C(/C=C/c1cccn1Cc1ccc(Cl)cc1)CC(=O)C(=O)O [8i, 6-[1-(4-Chlorophenyl)methyl-1H-pyrrol-2-yl]-2,4-dioxo-5-hexenoic Acid]
activity in the CPE assay [1]: inactive

CCOC(=O)C(=O)CC(=O)/C=C/c1cccn1Cc1ccc(Cl)cc1Cl [7w, 6-[1-(2,4-Dichlorophenyl)methyl-1H-pyrrol-2-yl]-2,4-dioxo-5-hexenoic Acid Ethyl Ester]
IC50 [4]: > 111 µM

CCOC(=O)C(=O)CC(=O)/C=C/c1cccn1Cc1ccc(C#N)cc1 [7l, 6-[1-(4-Cyanophenyl)methyl-1H-pyrrol-2-yl]-2,4-dioxo-5-hexenoic Acid Ethyl Ester]
IC50 [4]: > 111 µM

CCOC(=O)C(=O)CC(=O)/C=C/c1cccn1Cc1cccc(F)c1 [7f, 6-[1-(3-Fluorophenyl)methyl-1H-pyrrol-2-yl]-2,4-dioxo-5-hexenoic Acid Ethyl Ester]
activity in the CPE assay [1]: antiviral

CCOC(=O)C(=O)CC(=O)/C=C/c1cccn1Cc1ccccc1OCC [7o, 6-[1-(2-Ethoxyphenyl)methyl-1H-pyrrol-2-yl]-2,4-dioxo-5-hexenoic Acid Ethyl Ester]
IC50 [2]: > 100 µM

CCOC(=O)C(=O)CC(=O)/C=C/c1cccn1Cc1ccccc1 [7a, 6-[1-(Phenyl)methyl-1H-pyrrol-2-yl]-2,4-dioxo-5-hexenoic Acid Ethyl Ester]
activity in the CPE assay [1]: antiviral

CCOC(=O)C(=O)CC(=O)/C=C/c1cccn1Cc1ccccc1F [7e, 6-[1-(2-Fluorophenyl)methyl-1H-pyrrol-2-yl]-2,4-dioxo-5-hexenoic Acid Ethyl Ester]
activity in the CPE assay [1]: antiviral

Source: article PMC7581279 (Journal of medicinal chemistry, 2013)
